Laboratory results reported in the supplement of paper PMC10307832.

What was measured:
Test in all cases: relative viability (nuclei count vs DMSO), 5 days (fraction); higher = more cells survive
[1] = system: HCC-78
How it was run: (§1)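 After 5 days of treatment, lung cancer cells in 1536-well plates were fixed and stained in a single step (final 0.05% Triton X-100, 1% formaldehyde, 1 ug/ml Hoechst) and their nuclei counted on 4× images. Treatment had been applied by pin tool the day after seeding as one drug alone or as a fixed anchor-drug dose with five library-drug doses (not always all listed) in √10 steps. Relative viability is the nuclei count of treated wells divided by that of vehicle wells, and values are medians of duplicate plates.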

[2] = system: NCI-H1915
How it was run: as §1

[3] = system: NCI-H2126
How it was run: as §1

[4] = system: NCI-H2405
How it was run: as §1

[5] = system: LC-2-ad
How it was run: as §1

[6] = system: NCI-H520
How it was run: as §1

[7] = system: NCI-H2347
How it was run: as §1

[8] = system: COR-L 105
How it was run: as §1

[9] = system: EPLC-272H
How it was run: as §1

[10] = system: NCI-H2087
How it was run: as §1

[11] = system: NCI-H23
How it was run: as §1

Q: `COc1cc2nccc(Oc3ccc(NC(=O)Nc4cc(C)on4)c(Cl)c3)c2cc1OC` [Tivozanib] + CC(=O)Nc1cccc(-n2c(=O)n(C3CC3)c(=O)c3c(Nc4ccc(I)cc4F)n(C)c(=O)c(C)c32)c1 [Trametinib] (partner 0.02 µM) was tested. Which relative viability ([1]; first compound 0.005 µM) did it give?
A: Its relative viability is 0.788.

Q: And the relative viability ([1]; first compound 0.01581 µM)?
A: Its relative viability is 0.828.

Q: What about the relative viability ([1]; first compound 0.05 µM) of the same molecule?
A: Its relative viability is 0.711.

Q: What about the relative viability ([1]; first compound 0.1581 µM) of the same molecule?
A: Its relative viability is 0.859.

Q: And the relative viability ([1]; first compound 0.5 µM)?
A: The relative viability was 0.537.

Q: And the relative viability ([2]; first compound 0.005 µM)?
A: The relative viability was 0.318.

Q: What about the relative viability ([2]; first compound 0.01581 µM) of the same molecule?
A: The relative viability was 0.305.

Q: And the relative viability ([2]; first compound 0.05 µM)?
A: Its relative viability is 0.3.

Q: What about the relative viability ([2]; first compound 0.1581 µM) of the same molecule?
A: Its relative viability is 0.273.

Q: And the relative viability ([2]; first compound 0.5 µM)?
A: Its relative viability is 0.304.

Q: What about the relative viability ([3]; first compound 0.005 µM) of the same molecule?
A: The relative viability was 0.595.

Q: What about the relative viability ([3]; first compound 0.01581 µM) of the same molecule?
A: The relative viability was 0.556.

Q: And the relative viability ([3]; first compound 0.05 µM)?
A: Its relative viability is 0.567.

Q: And the relative viability ([3]; first compound 0.1581 µM)?
A: The relative viability was 0.444.

Q: And the relative viability ([3]; first compound 0.5 µM)?
A: Its relative viability is 0.555.

Q: What about the relative viability ([4]; first compound 0.005 µM) of the same molecule?
A: The relative viability was 0.543.

Q: What about the relative viability ([4]; first compound 0.01581 µM) of the same molecule?
A: Its relative viability is 0.664.

Q: What about the relative viability ([4]; first compound 0.05 µM) of the same molecule?
A: The relative viability was 0.607.

Q: And the relative viability ([4]; first compound 0.1581 µM)?
A: The relative viability was 0.499.

Q: And the relative viability ([4]; first compound 0.5 µM)?
A: The relative viability was 0.554.

Q: What about the relative viability ([5]; first compound 0.005 µM) of the same molecule?
A: The relative viability was 0.91.

Q: And the relative viability ([5]; first compound 0.01581 µM)?
A: The relative viability was 0.849.

Q: And the relative viability ([5]; first compound 0.05 µM)?
A: Its relative viability is 0.888.

Q: What about the relative viability ([5]; first compound 0.1581 µM) of the same molecule?
A: Its relative viability is 0.601.

Q: What about the relative viability ([5]; first compound 0.5 µM) of the same molecule?
A: The relative viability was 0.497.

Q: What about the relative viability ([6]; first compound 0.005 µM) of the same molecule?
A: The relative viability was 0.658.

Q: What about the relative viability ([6]; first compound 0.01581 µM) of the same molecule?
A: Its relative viability is 0.771.

Q: What about the relative viability ([6]; first compound 0.05 µM) of the same molecule?
A: Its relative viability is 0.612.

Q: What about the relative viability ([6]; first compound 0.1581 µM) of the same molecule?
A: Its relative viability is 0.475.

Q: And the relative viability ([6]; first compound 0.5 µM)?
A: The relative viability was 0.646.

Q: What about the relative viability ([7]; first compound 0.005 µM) of the same molecule?
A: Its relative viability is 0.311.

Q: What about the relative viability ([7]; first compound 0.01581 µM) of the same molecule?
A: Its relative viability is 0.27.

Q: And the relative viability ([7]; first compound 0.05 µM)?
A: Its relative viability is 0.294.

Q: What about the relative viability ([7]; first compound 0.1581 µM) of the same molecule?
A: The relative viability was 0.317.

Q: And the relative viability ([7]; first compound 0.5 µM)?
A: Its relative viability is 0.284.

Q: What about the relative viability ([8]; first compound 0.005 µM) of the same molecule?
A: The relative viability was 0.417.

Q: What about the relative viability ([8]; first compound 0.01581 µM) of the same molecule?
A: The relative viability was 0.451.

Q: And the relative viability ([8]; first compound 0.05 µM)?
A: Its relative viability is 0.454.

Q: And the relative viability ([8]; first compound 0.1581 µM)?
A: Its relative viability is 0.482.

Q: What about the relative viability ([8]; first compound 0.5 µM) of the same molecule?
A: The relative viability was 0.494.

Q: And the relative viability ([9]; first compound 0.005 µM)?
A: Its relative viability is 0.243.

Q: And the relative viability ([9]; first compound 0.01581 µM)?
A: Its relative viability is 0.277.

Q: What about the relative viability ([9]; first compound 0.05 µM) of the same molecule?
A: The relative viability was 0.27.

Q: What about the relative viability ([9]; first compound 0.1581 µM) of the same molecule?
A: Its relative viability is 0.235.

Q: What about the relative viability ([9]; first compound 0.5 µM) of the same molecule?
A: Its relative viability is 0.246.

Q: What about the relative viability ([10]; first compound 0.005 µM) of the same molecule?
A: The relative viability was 0.147.

Q: What about the relative viability ([10]; first compound 0.01581 µM) of the same molecule?
A: The relative viability was 0.211.

Q: What about the relative viability ([10]; first compound 0.05 µM) of the same molecule?
A: Its relative viability is 0.193.

Q: And the relative viability ([10]; first compound 0.1581 µM)?
A: The relative viability was 0.166.

Q: And the relative viability ([10]; first compound 0.5 µM)?
A: The relative viability was 0.243.

Q: What about the relative viability ([11]; first compound 0.005 µM) of the same molecule?
A: The relative viability was 0.363.

Q: What about the relative viability ([11]; first compound 0.01581 µM) of the same molecule?
A: The relative viability was 0.364.

Q: And the relative viability ([11]; first compound 0.05 µM)?
A: Its relative viability is 0.383.

Q: What about the relative viability ([11]; first compound 0.5 µM) of the same molecule?
A: The relative viability was 0.373.
